From patent US9458104B2 (priority 2012, dated 2016) come the findings set out here.

This experiment addresses T1, RORγ (UniProt P51449).
T1 construct: hRORg-LBD|aa259-518|NP_005051.2; hRORgt|aa1-497|NP_001001523 (RORg, t isoform, 497aa); mRORg-LBD|aa264-516|NP_035411
T1 sequence (P51449 1-518): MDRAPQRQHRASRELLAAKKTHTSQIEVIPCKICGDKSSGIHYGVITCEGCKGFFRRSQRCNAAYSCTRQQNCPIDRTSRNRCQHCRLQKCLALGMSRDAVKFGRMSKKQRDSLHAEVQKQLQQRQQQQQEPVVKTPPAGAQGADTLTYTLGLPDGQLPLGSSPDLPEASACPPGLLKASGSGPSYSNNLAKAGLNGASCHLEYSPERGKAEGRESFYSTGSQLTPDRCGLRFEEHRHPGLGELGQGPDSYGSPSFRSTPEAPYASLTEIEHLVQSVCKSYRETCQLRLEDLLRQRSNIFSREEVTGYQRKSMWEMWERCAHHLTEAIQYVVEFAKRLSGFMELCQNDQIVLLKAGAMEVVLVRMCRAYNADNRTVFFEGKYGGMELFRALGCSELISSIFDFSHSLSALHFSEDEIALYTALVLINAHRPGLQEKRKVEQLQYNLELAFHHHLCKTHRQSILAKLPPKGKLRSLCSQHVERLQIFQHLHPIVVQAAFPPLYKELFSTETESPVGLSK
Format: cell-based. Conditions: 293T cells, 16 h; for pIC50 (FF): firefly (FF) luciferase; for pIC50 (REN): renilla normalised (RENnorm) luciferase. As to the method: Determination of a ligand mediated Gal4 promoter driven transactivation to quantify ligand binding to RORγ was performed as follows: DNA encoding three different RORγ. protein fragments was cloned into vector pCMV-BD (Stratagene). Expression was under control of a CMV promoter and as fusion to the DNA-binding domain of the yeast protein GAL4. Other vectors used were pFR-Luc (Stratagene) as regulated reporter plasmid. pFR-Luc contains a synthetic promoter with five tandem repeats of the yeast GAL4 binding sites that control expression of the Photinus pyralis (American firefly) luciferase gene. In order to improve experimental accuracy the plasmid pRL-CMV was cotransfected. pRL-CMV contains the constitutive CMV promoter, controlling the expression of the Renilla reniformis luciferase.
All Gal4 reporter gene assays were done in 293T cells (DSMZ (German Collection of Microorganisms and Cell Cultures), Braunschweig, Germany, ACC635) grown in Minimum Essential Medium (MEM) with Phenol Red. The medium is supplemented with 10% fetal bovine serum, 0.1 mM nonessential amino acids, 1 mM sodium pyruvate, 1% Glutamax and 100 units Penicilin/[…] per mL at 37° C. in 5% CO2.
For the assay, […] were plated per well in 96 well plates in 100 μL per well, incubated over night at 37° C. in 5% CO2. The following day, medium was discarded and the cells were transiently transfected using 20 μL per well of a OptiMEM—PEI-based transfection-reagent (Sigma-Aldrich, 408727) including the three plasmids described above. About 4 h after addition of the transfection solution, fresh Minimal Essential Medium (MEM, same composition as used for plating cells, but without serum) was added. Then compound stocks, prediluted in MEM (same composition as used for plating cells) were added (final vehicle concentration not exceeding 0.1%).
All experiments were done at least in triplicates.
It is understood that the data illustrated below may have reasonable variation depending on the specific conditions and procedures used by the person conducting the test.

For the compound `Cn1c(C(=O)NCC(C)(C)O)cc(-c2cc(C(C)(C)C)cc(C3(C)CC3)c2)c1C(=O)C1CCCCC1` [Example 26/1], the “pIC50 (FF)” value was determined as 7.8 and the “pIC50 (REN)” value is reported as 7.9.
For `CC(C)(C)NS(=O)(=O)c1ccc(-n2nc(C(=O)NC3CCS(=O)(=O)CC3)c(Cl)c2CC2CCCCC2)c2ccccc12` [Example 114/1], in that order: 6.9 and 7.0.
For `CC(C)(C)c1cc(-n2nc(C(=O)N[C@H]3C[C@H](C(=O)O)C3)cc2OC2CCCCC2)cc(C2(C)CC2)c1` [Example 110, trans-3-(1-(3-(tert-Butyl)-5-(1-methylcyclopropyl)phenyl)-5-(cyclohexyloxy)-1H-pyrazole-3-carboxamido)cyclobutanecarboxylic acid], in that order: “nt/6.5/6.5” and “nt/6.5/6.5”.
`CC(C)(C)c1cc(-n2nc(C(=O)N[C@H]3C[C@H](C(=O)O)C3)c(Cl)c2OC2CCCCC2)cc(C2(C)CC2)c1` [Example 111, trans-3-(1-(3-(tert-Butyl)-5-(1-methylcyclopropyl)phenyl)-4-chloro-5-(cyclohexyloxy)-1H-pyrazole-3-carboxamido)cyclobutanecarboxylic acid]: the “pIC50 (FF)” value stood at 7.3 and the “pIC50 (REN)” value is 7.5.
Consider `Cc1c(C(=O)NC2CCS(=O)(=O)CC2)nc(-c2ccc(S(=O)(=O)NC(C)(C)C)c3ccccc23)n1CC1CCCCC1` [Example 320, 2-(4-(N-(tert-Butyl)sulfamoyl)naphthalen-1-yl)-1-(cyclohexylmethyl)-N-(1,1-dioxidotetrahydro-2H-thiopyran-4-yl)-5-methyl-1H-imidazole-4-carboxamide], for which the “pIC50 (FF)” value is on record as 5.9 and the “pIC50 (REN)” value worked out at 6.0.
As for `Cn1c(C(=O)N[C@H]2C[C@H](C(=O)O)C2)cc(-c2ccc(S(=O)(=O)NC(C)(C)C)c3ccccc23)c1C(=O)C1CCCCC1` [26/2], the “pIC50 (FF)” value was 7.0 and the “pIC50 (REN)” value is 7.2.
Take `CC(C)(C)c1cc(-n2nc(C(=O)NC3CCOCC3)c(Cl)c2OC2CCCCC2)cc(C2(C)CC2)c1` [Example 111/1]: the “pIC50 (FF)” value was “nt/6.6/6.6” and the “pIC50 (REN)” value was “nt/6.6/6.6”.
`Cn1c(C(=O)NC2CCS(=O)(=O)CC2)cc(-c2ccc(S(=O)(=O)NC(C)(C)C)c3ccccc23)c1C(=O)C1CCCCC1` [26/4]: the “pIC50 (FF)” value was 7.7 and the “pIC50 (REN)” value is recorded as 7.8.
For `Cn1c(C(=O)NCC(C)(C)O)cc(-c2ccc(S(=O)(=O)NC(C)(C)C)c3ccccc23)c1C(=O)C1CCCCC1` [26/3], the “pIC50 (FF)” value is 7.5 and the “pIC50 (REN)” value is 7.8.
Taken in the same sequence, the figures for `CC(C)(C)NS(=O)(=O)c1ccc(-c2c(Cl)c(C(=O)NC34CCC(C(=O)O)(CC3)CC4)nn2CC2CCCCC2)c(Cl)c1Cl` [Example 113, 4-(5-(4-(N-(tert-Butyl)sulfamoyl)-2,3-dichlorophenyl)-4-chloro-1-(cyclohexylmethyl)-1H-pyrazole-3-carboxamido)bicyclo[2.2.2]octane-1-carboxylic acid] were 7.5 and 7.6.
Taken in the same sequence, the figures for `CC(C)(C)NS(=O)(=O)c1ccc(-n2nc(C(=O)N[C@H]3C[C@H](C(=O)O)C3)c(Cl)c2CC2CCCCC2)c2ccccc12` [Example 114, (trans)-3-(1-(4-(N-(tert-Butyl)sulfamoyl)naphthalen-1-yl)-4-chloro-5-(cyclohexyl-methyl)-1H-pyrazole-3-carboxamido)cyclobutanecarboxylic acid] were “nt/6.8/6.8” and “nt/6.8/6.8”.
